Data as given in US8367620B2, “Peptidic growth hormone secretagogues analog compounds and preparations thereof” (Centro de Ingenieria Genetica y Biotecnologia, priority 2006, dated 2013).

Key:
[1] = system: Litopenaeus vanamei; assay: Growing of shrimp larvae by dipping in solution of the compounds; format: in vivo; details: four dips of one hour every three days, 0.1 g/L
Description: Shrimp larvae were subjected two four dips, for one hour every three days with different peptidic GHS analogs at 0.1 g/L. The control group was subjected to the same frequency of dipping with 1 mg/L BSA.

[2] = system: Litopenaeus vanamei post-larvae; assay: Growth of shrimp post-larvae fed Artemia-bioencapsulated compounds; format: in vivo; details: Artemia bioencapsulated (10 mh/L, one hour), fed four times a day for one month
Description: The peptidic GHS analogs were bioencapsulated in Artemia to be fed to Litopenaeus vanamei post-larvae. For the encapsulation the compounds were added in a 10 mh/L left for an hour, harvested and washed. The animals were fed four times a day for one month while the control group was fed with BSA encapsulated Artemia The effect was measured with an optical micrometer and weighing the animals in a 0.1 mg precision scale.

[3] = system: lysozyme; assay: Lysozyme levels in tilapia larvae treated by immersion; format: in vivo, Oreochromis sp.; details: immersion 100 μg/L
Description: (§1) Growth stimulation experiments on tilapia Oreochromis sp. larvae were performed evaluating groups of 100 larvae with 0.01 g average, using the peptidic GHS analogs, in a 100 μg/L concentration, twice a week using an immersion time of one hour.
During this experiment lysozyme levels were also monitored and an increase of this immunity marker was obtained in the treated animals as shown in table 8.

[4] = system: tilapia Oreochromis sp. larvae; assay: Growth stimulation of tilapia larvae by immersion; format: in vivo; details: immersion 100 μg/L, one hour twice a week, three weeks
Description: as §1

[5] = system: Post-larvae of Litopenaeus vanamei; assay: Growth stimulation in shrimps by dietary supplementation; format: in vivo; details: compound at 1% in post-larvae crustacean diet
Description: The peptidic GHS analogs were included at 1% in a post-larvae crustacean diet. Post-larvae of Litopenaeus vanamei were fed with the aforementioned diet in parallel with a control group with 1% BSA addition. The effect was measured with an optical micrometer and weighing the animals in a 0.1 mg precision scale.

[6] = system: IGF-I mRNA; assay: IGF-I mRNA in liver and GH level of intraperitoneally injected tilapias; format: in vivo, tilapia; details: liver of intraperitoneally injected tilapias
Description: IGF-I mRNa was determined in the liver of intraperitoneally injected tilapias monitoring also the GH level time course, showing the peptidic GHS analog compounds as able to stimulate in fish the GH levels in the bloodstream and at incrementing the IGF-I mRNA levels after the injection of the compounds as shown in table 4.

[7] = system: tilapias; assay: Growth acceleration on juvenile tilapias treated intraperitoneally; format: in vivo; details: juvenile tilapia, ip 0.1 μg/g twice a week, three weeks
Description: The compounds were dissolved in a sodium phosphate (PBS) buffer solution and injected twice a week, during three weeks at 0.1 μg/g of humid fish weight (gbw). Compounds were applied individually to a group of 10 male tilapias with an average weight of 60.41±10.36 g and a control group with an average weight of 60.58±19.67 g was receiving PBS only as a control, measuring the average weight every week, all animals in the experiment were labelled with microchips (Stoelting Co. Wood Dale, USA.). for proper identification.

[8] = system: PC12 cells; format: cell-based; details: differentiated PC12 cells, 72 h incubation, MTT; read-out: IC50 during the NGF deprivation induced neuronal death
Description: PC12 cells were stored in 75 cm^2 culture flasks on DMEM containing 5% bovine foetal serum and 10% horse serum, with 50 μg/ml gentamicin. Cells were incubated at 37° C. in 5% CO2. To induce differentiation cells were transferred at a density of 1×10^4 to polylysine covered 96 well plates in NGF supplemented DMEM media for 7 days, with medium replacement every 2-3 days. After differentiation cells were incubated with peptidic GHS analog compounds, at different concentrations for 72 h. Cell survival and proliferation was determined using the Promega non-radioactive cytotoxicity proliferation assay, Cell Titer 96, based in the conversion of 3-(4,5-dimethylthiazole-2-yl)-2,5-diphenyltetrazolium bromide (MTT) in to a spectrophotometrically detectable product. After deprivation of NGF medium is removed and 15 μl of the DMEM dissolved dye is added, after 4 hours of 37° C. incubation 100 μl of the stopping solution is added and absorbance is measured at 570 nm

[9] = system: primary cultures of granular cerebellum cells; format: cell-based, Wistar rats; details: 500 μM hydrogen peroxide, rat cerebellum granular cells; read-out: IC50 during the induced neuronal damage by Hydrogen Peroxide addition to a primary culture of neurons
Description: Primary cultures of granular cerebellum cells were obtained from 7-9 days Wistar rats. After a rapid dissection, rat cerebellums were submerged in a cold solution and meningeal membranes were removed, each organ was transferred to a 2-3 ml fresh medium solution and finely sliced. Cells were dissociated using a Pasteur pipette and filtered through a nylon […] membrane (Falcon, Franklin Lakes, N.J.). The number of viable cells was determined by cell counting in a hematocytometer with tripan blue as a marker. Cells were cultured on polylysine covered 96 well plates at a density of 6250 cells in […] final volume. Cultures were kept at 37° C. in 5%. CO2 after 24 h, 10 μM of cytosine arabinofuranose (AraC; Sigma) was added to inhibit the proliferation of non-neuronal cells. The capacity of neural damage prevention was tested adding 500 μM hydrogen peroxide in different concentrations of peptidic GHS analog compounds, Cell survival was determined using the Promega non-radioactive cytotoxicity proliferation assay, Cell Titer 96 (Promega).

HCKFDLDWH [Compound A223, L-amino acid peptide with internal side-chain cycle, SEC; ID NO: 3]
Size Inc. (%), control group growing = 100% [1]: 110.9% | Weight Inc. (%), control group growing = 100% [1]: 120.0% | Size Inc. (%), control group growing = 100% [2]: 132.0% | Lysozyme levels of the treated animals relative to the control group [3]: 1.52 | Weight Inc. (%), control group growing = 100% [4]: 102.0% | Size Inc. (%), control group growing = 100% [5]: 131.6% | Normalized IGF-I mRNA levels to a non related synthetic peptide control group [6]: 1.40 | Weight Inc. (%), control group growing = 100% [7]: 105.0% | IC50 [8]: 3.12 µM | IC50 [9]: 2.47 µM

HAKPGGIDPEQ [Compound A229, L-amino acid peptide with internal side-chain cycle, SEC; ID NO: 9]
Size Inc. (%), control group growing = 100% [1]: 115.9% | Weight Inc. (%), control group growing = 100% [1]: 126.1% | Size Inc. (%), control group growing = 100% [2]: 140.0% | Lysozyme levels of the treated animals relative to the control group [3]: 1.15 | Weight Inc. (%), control group growing = 100% [4]: 125.0% | Size Inc. (%), control group growing = 100% [5]: 140.0% | Normalized IGF-I mRNA levels to a non related synthetic peptide control group [6]: 1.09 | Weight Inc. (%), control group growing = 100% [7]: 126.5% | IC50 [8]: 3.41 µM | IC50 [9]: 1.33 µM

SSDFKLYWG [Compound A224, L-amino acid peptide with internal side-chain cycle, SEC; ID NO: 4]
Size Inc. (%), control group growing = 100% [1]: 116.0% | Weight Inc. (%), control group growing = 100% [1]: 127.0% | Size Inc. (%), control group growing = 100% [2]: 130.0% | Lysozyme levels of the treated animals relative to the control group [3]: 1.37 | Weight Inc. (%), control group growing = 100% [4]: 130.0% | Size Inc. (%), control group growing = 100% [5]: 131.2% | Normalized IGF-I mRNA levels to a non related synthetic peptide control group [6]: 1.41 | Weight Inc. (%), control group growing = 100% [7]: 132.7% | IC50 [8]: 2.37 µM | IC50 [9]: 3.2 µM

GLEFKLLHQ [Compound A238, L-amino acid peptide with internal side-chain cycle, SEC; ID NO: 18]
Size Inc. (%), control group growing = 100% [1]: 117.9% | Weight Inc. (%), control group growing = 100% [1]: 129.2% | Size Inc. (%), control group growing = 100% [2]: 140.0% | Lysozyme levels of the treated animals relative to the control group [3]: 1.33 | Weight Inc. (%), control group growing = 100% [4]: 112.6% | Size Inc. (%), control group growing = 100% [5]: 130.1% | Normalized IGF-I mRNA levels to a non related synthetic peptide control group [6]: 1.24 | Weight Inc. (%), control group growing = 100% [7]: 129.4% | IC50 [8]: 2.04 µM | IC50 [9]: 1 µM

HGSKFDLEFG [Compound A222, L-amino acid peptide with internal side-chain cycle, SEC; ID NO: 2]
Size Inc. (%), control group growing = 100% [1]: 112.2% | Weight Inc. (%), control group growing = 100% [1]: 121.0% | Size Inc. (%), control group growing = 100% [2]: 130.3% | Lysozyme levels of the treated animals relative to the control group [3]: 1.43 | Weight Inc. (%), control group growing = 100% [4]: 96.0% | Size Inc. (%), control group growing = 100% [5]: 131.0% | Normalized IGF-I mRNA levels to a non related synthetic peptide control group [6]: 1.115 | Weight Inc. (%), control group growing = 100% [7]: 96.2% | IC50 [8]: 2.03 µM | IC50 [9]: 1.3 µM

GDAGAKLLSSR [Compound A234]
Size Inc. (%), control group growing = 100% [1]: 114.2% | Weight Inc. (%), control group growing = 100% [1]: 123.6% | Size Inc. (%), control group growing = 100% [2]: 135.0% | Lysozyme levels of the treated animals relative to the control group [3]: 2.77 | Weight Inc. (%), control group growing = 100% [4]: 120.6% | Size Inc. (%), control group growing = 100% [5]: 138.6% | Normalized IGF-I mRNA levels to a non related synthetic peptide control group [6]: 1.17 | Weight Inc. (%), control group growing = 100% [7]: 110.6% | IC50 [8]: 5.86 µM | IC50 [9]: 3.72 µM

GMEAGIKLCHRQ [Compound A235, L-amino acid peptide with internal side-chain cycle, SEC; ID NO: 15]
Size Inc. (%), control group growing = 100% [1]: 112.5% | Weight Inc. (%), control group growing = 100% [1]: 121.0% | Size Inc. (%), control group growing = 100% [2]: 134.2% | Lysozyme levels of the treated animals relative to the control group [3]: 1.90 | Weight Inc. (%), control group growing = 100% [4]: 90.0% | Size Inc. (%), control group growing = 100% [5]: 137.0% | Normalized IGF-I mRNA levels to a non related synthetic peptide control group [6]: 0.9 | Weight Inc. (%), control group growing = 100% [7]: 89.9% | IC50 [8]: 2.05 µM | IC50 [9]: 1.01 µM

GGGKFWDIPHH [Compound A231, L-amino acid peptide with internal side-chain cycle, SEC; ID NO: 11]
Size Inc. (%), control group growing = 100% [1]: 123.0% | Weight Inc. (%), control group growing = 100% [1]: 130.0% | Size Inc. (%), control group growing = 100% [2]: 140.2% | Lysozyme levels of the treated animals relative to the control group [3]: 1.89 | Weight Inc. (%), control group growing = 100% [4]: 151.0% | Size Inc. (%), control group growing = 100% [5]: 140.1% | Normalized IGF-I mRNA levels to a non related synthetic peptide control group [6]: 1.39 | Weight Inc. (%), control group growing = 100% [7]: 150.2% | IC50 [8]: 4 µM | IC50 [9]: 3.46 µM

HKGIDSPEQH [Compound A232]
Size Inc. (%), control group growing = 100% [1]: 123.0% | Weight Inc. (%), control group growing = 100% [1]: 132.8% | Size Inc. (%), control group growing = 100% [2]: 139.6% | Lysozyme levels of the treated animals relative to the control group [3]: 2.41 | Weight Inc. (%), control group growing = 100% [4]: 148.3% | Size Inc. (%), control group growing = 100% [5]: 139.7% | Normalized IGF-I mRNA levels to a non related synthetic peptide control group [6]: 1.23 | Weight Inc. (%), control group growing = 100% [7]: 160.1% | IC50 [8]: 4.89 µM | IC50 [9]: 3.28 µM

GEGYKLDERSQ [Compound A236, L-amino acid peptide with internal side-chain cycle, SEC; ID NO: 16]
Size Inc. (%), control group growing = 100% [1]: 112.0% | Weight Inc. (%), control group growing = 100% [1]: 121.0% | Size Inc. (%), control group growing = 100% [2]: 138.0% | Lysozyme levels of the treated animals relative to the control group [3]: 1.42 | Weight Inc. (%), control group growing = 100% [4]: 105.0% | Size Inc. (%), control group growing = 100% [5]: 137.0% | Normalized IGF-I mRNA levels to a non related synthetic peptide control group [6]: 1.13 | Weight Inc. (%), control group growing = 100% [7]: 99.0% | IC50 [8]: 3 µM | IC50 [9]: 3.33 µM

HSKGYDLDH [Compound A227, L-amino acid peptide with internal side-chain cycle, SEC; ID NO: 7]
Size Inc. (%), control group growing = 100% [1]: 118.5% | Weight Inc. (%), control group growing = 100% [1]: 128.6% | Size Inc. (%), control group growing = 100% [2]: 140.0% | Lysozyme levels of the treated animals relative to the control group [3]: 1.52 | Weight Inc. (%), control group growing = 100% [4]: 140.6% | Size Inc. (%), control group growing = 100% [5]: 139.0% | Normalized IGF-I mRNA levels to a non related synthetic peptide control group [6]: 1.28 | Weight Inc. (%), control group growing = 100% [7]: 139.9% | IC50 [8]: 3.06 µM | IC50 [9]: 2.26 µM

ALDFKPNIP [Compound A225, L-amino acid peptide with internal side-chain cycle, SEC; ID NO: 5]
Size Inc. (%), control group growing = 100% [1]: 112.6% | Weight Inc. (%), control group growing = 100% [1]: 121.0% | Size Inc. (%), control group growing = 100% [2]: 130.0% | Lysozyme levels of the treated animals relative to the control group [3]: 1.43 | Weight Inc. (%), control group growing = 100% [4]: 98.0% | Size Inc. (%), control group growing = 100% [5]: 130.0% | Normalized IGF-I mRNA levels to a non related synthetic peptide control group [6]: 1.38 | Weight Inc. (%), control group growing = 100% [7]: 120.0% | IC50 [8]: 4.07 µM | IC50 [9]: 3.99 µM
